{
  "source": "patent US20260042731A1",
  "about": "“(2,4-DICHLOROPHENOXY)ACETIC ACID ANALOGS” (CORTEVA AGRISCIENCE LLC, priority 2022, published 2026)",
  "key": {"[1]": {"tested_on": "weeds (ABUTH, AMATA, AMBEL, CHEAL, ERICA)", "assay": "Postemergence herbicide evaluation, overall average % weed control across ABUTH, AMATA, AMBEL, CHEAL, ERICA", "format": "in vivo", "conditions": "post-emergence, average over the five weeds, read-out: Overall Ave % Weed Control; for pest or weed control at 280 g/ha: 280 g ae/ha; for pest or weed control at 560 g/ha: 560 g ae/ha"}, "[2]": {"tested_on": "Ambrosia artemisiifolia (AMBEL), common ragweed", "assay": "Postemergence herbicide evaluation, growth of Ambrosia artemisiifolia (AMBEL)", "format": "in vivo", "conditions": "Ambrosia artemisiifolia, post-emergence, read-out: AVE. AMBEL"}, "[3]": {"tested_on": "Amaranthus rudis (AMATA), tall water hemp", "assay": "Postemergence herbicide evaluation, growth of Amaranthus rudis (AMATA)", "format": "in vivo", "conditions": "Amaranthus tuberculatus, post-emergence, read-out: Ave. AMATA"}, "[4]": {"tested_on": "Chenopodium album (CHEAL), common lambsquarters", "assay": "Postemergence herbicide evaluation, growth of Chenopodium album (CHEAL)", "format": "in vivo", "conditions": "Chenopodium album, post-emergence, read-out: Ave. CHEAL"}, "[5]": {"tested_on": "Abutilon theophrasti (ABUTH), velvetleaf", "assay": "Postemergence herbicide evaluation, growth of Abutilon theophrasti (ABUTH)", "format": "in vivo", "conditions": "Abutilon theophrasti, post-emergence, read-out: AVE. ABUTH"}, "[6]": {"tested_on": "glyphosate resistant Conyza canadensis (L.) (ERICA), horseweed", "assay": "Postemergence herbicide evaluation, growth of Conyza canadensis (ERICA)", "format": "in vivo", "conditions": "Erigeron canadensis, post-emergence, read-out: Ave. ERICA"}, "[7]": {"assay": "Volatility of compounds measured by thermogravimetric analysis (TGA)", "format": "physicochemical"}},
  "note": "Where two headings read alike, the source gives them in different places.",
  "data": [
    {"smiles": "O=C(COc1ccc(Cl)cc1Cl)Oc1ccc(Cl)cc1", "note": "[Compound E5, 4-Chlorophenyl 2-(2,4-dichlorophenoxy)acetate]", "values": [
      {"measurement": "pest or weed control at 280 g/ha", "setting": "[1]; 168 h, 7 DAA", "value": 71, "unit": "%"},
      {"measurement": "pest or weed control at 560 g/ha", "setting": "[1]; 168 h, 7 DAA", "value": 75, "unit": "%"},
      {"measurement": "pest or weed control at 280 g/ha", "setting": "[1]; 336 h, 14 DAA", "value": 84, "unit": "%"},
      {"measurement": "pest or weed control at 560 g/ha", "setting": "[1]; 336 h, 14 DAA", "value": 88, "unit": "%"},
      {"measurement": "pest or weed control at 280 g/ha", "setting": "[1]; 504 h, 21 DAA", "value": 88, "unit": "%"},
      {"measurement": "pest or weed control at 560 g/ha", "setting": "[1]; 504 h, 21 DAA", "value": 93, "unit": "%"},
      {"measurement": "pest or weed control at 280 g/ha", "setting": "[2]; 168 h", "value": 68, "unit": "%"},
      {"measurement": "pest or weed control at 560 g/ha", "setting": "[2]; 168 h", "value": 75, "unit": "%"},
      {"measurement": "pest or weed control at 280 g/ha", "setting": "[2]; 336 h", "value": 89, "unit": "%"},
      {"measurement": "pest or weed control at 560 g/ha", "setting": "[2]; 336 h", "value": 93, "unit": "%"},
      {"measurement": "pest or weed control at 280 g/ha", "setting": "[2]; 504 h", "value": 90, "unit": "%"},
      {"measurement": "pest or weed control at 560 g/ha", "setting": "[2]; 504 h", "value": 98, "unit": "%"},
      {"measurement": "pest or weed control at 280 g/ha", "setting": "[3]; 168 h", "value": 73, "unit": "%"},
      {"measurement": "pest or weed control at 560 g/ha", "setting": "[3]; 168 h", "value": 78, "unit": "%"},
      {"measurement": "pest or weed control at 280 g/ha", "setting": "[3]; 336 h", "value": 75, "unit": "%"},
      {"measurement": "pest or weed control at 560 g/ha", "setting": "[3]; 336 h", "value": 89, "unit": "%"},
      {"measurement": "pest or weed control at 280 g/ha", "setting": "[3]; 504 h", "value": 78, "unit": "%"},
      {"measurement": "pest or weed control at 560 g/ha", "setting": "[3]; 504 h", "value": 86, "unit": "%"},
      {"measurement": "pest or weed control at 280 g/ha", "setting": "[4]; 168 h", "value": 70, "unit": "%"},
      {"measurement": "pest or weed control at 560 g/ha", "setting": "[4]; 168 h", "value": 68, "unit": "%"},
      {"measurement": "pest or weed control at 280 g/ha", "setting": "[4]; 336 h", "value": 73, "unit": "%"},
      {"measurement": "pest or weed control at 560 g/ha", "setting": "[4]; 336 h", "value": 83, "unit": "%"},
      {"measurement": "pest or weed control at 280 g/ha", "setting": "[4]; 504 h", "value": 80, "unit": "%"},
      {"measurement": "pest or weed control at 560 g/ha", "setting": "[4]; 504 h", "value": 94, "unit": "%"},
      {"measurement": "pest or weed control at 280 g/ha", "setting": "[5]; 168 h", "value": 78, "unit": "%"},
      {"measurement": "pest or weed control at 560 g/ha", "setting": "[5]; 168 h", "value": 85, "unit": "%"},
      {"measurement": "pest or weed control at 280 g/ha", "setting": "[5]; 336 h", "value": 93, "unit": "%"},
      {"measurement": "pest or weed control at 560 g/ha", "setting": "[5]; 336 h", "value": 93, "unit": "%"},
      {"measurement": "pest or weed control at 280 g/ha", "setting": "[5]; 504 h", "value": 98, "unit": "%"},
      {"measurement": "pest or weed control at 560 g/ha", "setting": "[5]; 504 h", "value": 97, "unit": "%"},
      {"measurement": "pest or weed control at 280 g/ha", "setting": "[6]; 168 h", "value": 68, "unit": "%"},
      {"measurement": "pest or weed control at 560 g/ha", "setting": "[6]; 168 h", "value": 70, "unit": "%"},
      {"measurement": "pest or weed control at 280 g/ha", "setting": "[6]; 336 h", "value": 90, "unit": "%"},
      {"measurement": "pest or weed control at 560 g/ha", "setting": "[6]; 336 h", "value": 83, "unit": "%"},
      {"measurement": "pest or weed control at 280 g/ha", "setting": "[6]; 504 h", "value": 95, "unit": "%"},
      {"measurement": "pest or weed control at 560 g/ha", "setting": "[6]; 504 h", "value": 90, "unit": "%"},
      {"measurement": "TGA Data (rate of weight loss, volatility)", "setting": "[7]", "value": 0.6, "unit": "µg/min"}
    ]}
  ]
}
